One assay relates to Hep-3B cells. Put plainly: Cellular assay: erythropoietin secretion in Hep-3B cells. The class given is cell-based, human. The note with it: Homo sapiens, Hep3B, 100 μM compound, 24 hours, percent of EPO secretion relative to assay control compound 7-[(4-Chloro-phenyl)-(5-methyl-isoxazol-3-ylamino)-methyl]-quinolin-8-ol, read-out: Cellular % EPO Stimulation. In a few lines: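 Hep-3B cells in DMEM with 10% FBS, treated 24 h after plating with compounds at 100 μM final for a further 24 h. Secreted EPO in supernatant measured by MSD electrochemiluminescence sandwich immunoassay with anti-EPO detection antibody.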

In another assay the target is T1, human PHD2 (PHD2181-417) (Homo sapiens, UniProt Q9GZT9).
T1 construct: Smt (SUMO) tag (cleaved yes); made in house; host or cells: E. coli BL21 (pBAD vector)
Put plainly: PHD enzymatic assay ([14C]-succinic acid production). The class given is biochemical. The note with it: PHD2181-417, HIF-1α peptide 10 μM, average of results; read-out: Enzyme pIC50 (converted). In a few lines:
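Activity measured as [14C]-succinic acid formed from [5-14C]-2-oxoglutarate over 10 minutes, with peptide substrate at 10 μM, in Tris-HCl pH 7.5 buffer containing catalase, DTT and ascorbate. Unreacted oxoglutarate removed by DNP derivatisation; supernatant beta-counted.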

T1 sequence (Q9GZT9 181-417): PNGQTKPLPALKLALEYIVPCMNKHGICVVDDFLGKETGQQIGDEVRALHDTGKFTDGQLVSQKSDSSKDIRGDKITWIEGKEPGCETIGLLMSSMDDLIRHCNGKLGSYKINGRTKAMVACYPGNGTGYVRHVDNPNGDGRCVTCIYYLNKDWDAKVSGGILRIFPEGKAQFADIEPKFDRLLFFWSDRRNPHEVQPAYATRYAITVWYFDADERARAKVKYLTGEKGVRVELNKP

For the compound `O=C(O)c1cnn(-c2nc3cc(F)c(Oc4cccc(F)c4)cc3c(=O)[nH]2)c1` [Example 56, 1-[7-Fluoro-6-(3-fluoro-phenoxy)-4-oxo-3,4-dihydro-quinazolin-2-yl]-1H-pyrazole-4-carboxylic acid], the Emax at 100 µM with Hep-3B cells came to 68%. The IC50 at human PHD2 (PHD2181-417) was 20 nM.

Regarding `O=C(O)c1cnn(-c2nc3ccc(NS(=O)(=O)c4ccccc4)cc3c(=O)[nH]2)c1` [Example 169, 1-(6-Benzenesulfonylamino-4-oxo-3,4-dihydro-quinazolin-2-yl)-1H-pyrazole-4-carboxylic acid], in the assay with Hep-3B cells, the Emax at 100 µM is 34%. Also, the IC50 at human PHD2 (PHD2181-417) is 25.1 nM.

For `CS(=O)(=O)Nc1ccc2nc(-n3cc(C(=O)O)cn3)[nH]c(=O)c2c1` [Example 170, 1-(6-Methanesulfonylamino-4-oxo-3,4-dihydro-quinazolin-2-yl)-1H-pyrazole-4-carboxylic acid], in the assay on Hep-3B cells, the Emax at 100 µM is 15%. Further, the IC50 on human PHD2 (PHD2181-417) was 31.6 nM.

As to `Cc1ccccc1-c1ccc2c(=O)[nH]c(-n3cc(C(=O)O)cn3)nc2c1` [Example 188, 1-(4-Oxo-7-o-tolyl-3,4-dihydro-quinazolin-2-yl)-1H-pyrazole-4-carboxylic acid], the Emax at 100 µM with Hep-3B cells came out at 11%. At human PHD2 (PHD2181-417), the IC50 was 79.4 nM.

Turning to `COc1cccc(-c2ccc3nc(-n4cc(C(=O)O)cn4)[nH]c(=O)c3c2)c1` [Example 199, 1-[6-(3-Methoxy-phenyl)-4-oxo-3,4-dihydro-quinazolin-2-yl]-1H-pyrazole-4-carboxylic acid], the Emax at 100 µM in the assay on Hep-3B cells came out at 119%. Further, the IC50 on human PHD2 (PHD2181-417) was 25.1 nM.

Turning to `O=C(O)c1cnn(-c2nc3cccc(Cl)c3c(=O)[nH]2)c1` [Example 6, 1-(5-Chloro-4-oxo-3,4-dihydro-quinazolin-2-yl)-1H-pyrazole-4-carboxylic acid], the Emax at 100 µM in the assay with Hep-3B cells is 19%. Besides, the IC50 on human PHD2 (PHD2181-417) is 158 nM.

Regarding `O=C(O)c1cnn(-c2nc3ccc(-c4ccccc4F)cc3c(=O)[nH]2)c1` [Example 195, 1-[6-(2-Fluoro-phenyl)-4-oxo-3,4-dihydro-quinazolin-2-yl]-1H-pyrazole-4-carboxylic acid], the Emax at 100 µM with Hep-3B cells stood at 100%. Further, at human PHD2 (PHD2181-417), the IC50 is 25.1 nM.

Consider `COc1cccc(Oc2ccc3nc(-n4cc(C(=O)O)cn4)[nH]c(=O)c3c2)c1` [Example 31, 1-[6-(3-Methoxy-phenoxy)-4-oxo-3,4-dihydro-quinazolin-2-yl]-1H-pyrazole-4-carboxylic acid], for which the Emax at 100 µM with Hep-3B cells was determined as 129%. For the same compound, the IC50 at human PHD2 (PHD2181-417) was 20 nM.

As to `CC(C)(C)c1cccc2c(=O)[nH]c(-n3cc(C(=O)O)cn3)nc12` [Example 115, 1-(8-tert-Butyl-4-oxo-3,4-dihydro-quinazolin-2-yl)-1H-pyrazole-4-carboxylic acid], the Emax at 100 µM with Hep-3B cells came out at 27%. Also, the IC50 at human PHD2 (PHD2181-417) was 158 nM.

Take `CCc1ccc2nc(-n3cc(C(=O)O)cn3)[nH]c(=O)c2c1` [Example 128, 1-(6-Ethyl-4-oxo-3,4-dihydro-quinazolin-2-yl)-1H-pyrazole-4-carboxylic acid]: the Emax at 100 µM in the assay with Hep-3B cells came out at 53%. The IC50 on human PHD2 (PHD2181-417) was 39.8 nM.

In the case of `O=C(O)c1cnn(-c2nc3cc(Sc4ccccc4)ccc3c(=O)[nH]2)c1` [Example 78, 1-(4-Oxo-7-phenylsulfanyl-3,4-dihydro-quinazolin-2-yl)-1H-pyrazole-4-carboxylic acid], in the assay on Hep-3B cells, the Emax at 100 µM was determined as 5%. Moreover, on human PHD2 (PHD2181-417), the IC50 was 39.8 nM.

As for `O=C(O)c1cnn(-c2nc3ccc(-c4ccc5c(c4)OCO5)cc3c(=O)[nH]2)c1` [Example 207, 1-(6-Benzo[1,3]dioxol-5-yl-4-oxo-3,4-dihydro-quinazolin-2-yl)-1H-pyrazole-4-carboxylic acid], the Emax at 100 µM in the assay with Hep-3B cells turned out to be 84%. In addition, on human PHD2 (PHD2181-417), the IC50 is 25.1 nM.

With `COc1cc(Oc2ccc3nc(-n4cc(C(=O)O)cn4)[nH]c(=O)c3c2)cc(OC)c1OC` [Example 28, 1-[4-Oxo-6-(3,4,5-trimethoxy-phenoxy)-3,4-dihydro-quinazolin-2-yl]-1H-pyrazole-4-carboxylic acid], the Emax at 100 µM with Hep-3B cells worked out at 9%. Also, the IC50 at human PHD2 (PHD2181-417) was 20 nM.

As to `CC(C)(C)c1cc(Oc2ccc3nc(-n4cc(C(=O)O)cn4)[nH]c(=O)c3c2)cc(C(C)(C)C)c1` [Example 35, 1-[6-(3,5-Di-tert-butyl-phenoxy)-4-oxo-3,4-dihydro-quinazolin-2-yl]-1H-pyrazole-4-carboxylic acid], the Emax at 100 µM in the assay on Hep-3B cells was 8%. On human PHD2 (PHD2181-417), the IC50 is 31.6 nM.

With `C=C(Cl)c1ccc2nc(-n3cc(C(=O)O)cn3)[nH]c(=O)c2c1` [Example 77, 1-[6-(1-Chloro-vinyl)-4-oxo-3,4-dihydro-quinazolin-2-yl]-1H-pyrazole-4-carboxylic acid], the Emax at 100 µM with Hep-3B cells was found to be 27%. Also, the IC50 on human PHD2 (PHD2181-417) was 25.1 nM.

As to `O=C(O)c1cnn(-c2nc3cc(F)cc(F)c3c(=O)[nH]2)c1` [Example 131, 1-(5,7-Difluoro-4-oxo-3,4-dihydro-quinazolin-2-yl)-1H-pyrazole-4-carboxylic acid], in the assay with Hep-3B cells, the Emax at 100 µM amounted to 21%. For the same compound, the IC50 at human PHD2 (PHD2181-417) was 63.1 nM.

Turning to `O=C(O)c1cnn(-c2nc3ccc(Oc4cc(Cl)ccc4Cl)cc3c(=O)[nH]2)c1` [Example 40, 1-[6-(2,5-Dichloro-phenoxy)-4-oxo-3,4-dihydro-quinazolin-2-yl]-1H-pyrazole-4-carboxylic acid], the Emax at 100 µM in the assay on Hep-3B cells was found to be 77%. At human PHD2 (PHD2181-417), the IC50 was 25.1 nM.

For `CC(C)c1ccc2nc(-n3cc(C(=O)O)cn3)[nH]c(=O)c2c1` [Example 119, 1-(6-Isopropyl-4-oxo-3,4-dihydro-quinazolin-2-yl)-1H-pyrazole-4-carboxylic acid], the Emax at 100 µM in the assay on Hep-3B cells stood at 115%. For the same compound, the IC50 on human PHD2 (PHD2181-417) was 15.8 nM.

`Cc1cc2nc(-n3cc(C(=O)O)cn3)[nH]c(=O)c2cc1Oc1cc(Cl)ccc1Cl` [Example 90, 1-[6-(2,5-dichloro-phenoxy)-7-methyl-4-oxo-3,4-dihydro-quinazolin-2-yl]-1H-pyrazole-4-carboxylic acid]: the Emax at 100 µM in the assay on Hep-3B cells is 113%. Also, the IC50 on human PHD2 (PHD2181-417) was 25.1 nM.

Consider `COc1cc2nc(-n3cc(C(=O)O)cn3)[nH]c(=O)c2cc1Oc1ccccc1` [Example 62, 1-(7-Methoxy-4-oxo-6-phenoxy-3,4-dihydro-quinazolin-2-yl)-1H-pyrazole-4-carboxylic acid], for which the Emax at 100 µM in the assay on Hep-3B cells was 7%. Also, the IC50 on human PHD2 (PHD2181-417) was 39.8 nM.

In the case of `O=C(O)c1cnn(-c2nc3ccc(NCc4ccccc4Cl)cc3c(=O)[nH]2)c1` [Example 174, 1-[6-(2-Chloro-benzylamino)-4-oxo-3,4-dihydro-quinazolin-2-yl]-1H-pyrazole-4-carboxylic acid], the Emax at 100 µM in the assay on Hep-3B cells worked out at 24%. For the same compound, the IC50 at human PHD2 (PHD2181-417) was 20 nM.

As for `O=C(O)c1cnn(-c2nc3cc(I)ccc3c(=O)[nH]2)c1` [Example 208, 1-(7-Iodo-4-oxo-3,4-dihydro-quinazolin-2-yl)-1H-pyrazole-4-carboxylic acid], the Emax at 100 µM with Hep-3B cells was found to be 20%. At human PHD2 (PHD2181-417), the IC50 is 126 nM.

As to `O=C(O)c1cnn(-c2nc3ccc(-c4ccc(Cl)cc4)cc3c(=O)[nH]2)c1` [Example 194, 1-[6-(4-Chloro-phenyl)-4-oxo-3,4-dihydro-quinazolin-2-yl]-1H-pyrazole-4-carboxylic acid], the Emax at 100 µM with Hep-3B cells is 62%. In addition, the IC50 at human PHD2 (PHD2181-417) is 20 nM.

These data come from US8937078B2, “Quinazolinones as prolyl hydroxylase inhibitors” (Janssen Pharmaceutica NV, priority 2009, dated 2015).
